Data taken from publication PMC5342071, “A first generation inhibitor of human Greatwall kinase, enabled by structural and functional characterisation of a minimal kinase domain construct” (Oncotarget, 2016).

What was measured:
[1] = target: T1, hGWL-KinDom (Homo sapiens, UniProt Q96GX5); test: Kinase-Glo Max luminescence kinase assay with hGWL-KinDom; format: biochemical; conditions: Kinase-Glo Max assay; read-out: IC50 GWL-KinDom
T1 construct: that encoded amino acids (aa) 1-194 + ‘RTFC’ + 740-879 of hGWL; GST (rhinovirus 3C-protease cleavable) (N, cleaved yes); made in house; host or cells: E. coli Rosetta2(DE3)
T1 sequence (Q96GX5 with tags, fused parts or gaps limits assumed): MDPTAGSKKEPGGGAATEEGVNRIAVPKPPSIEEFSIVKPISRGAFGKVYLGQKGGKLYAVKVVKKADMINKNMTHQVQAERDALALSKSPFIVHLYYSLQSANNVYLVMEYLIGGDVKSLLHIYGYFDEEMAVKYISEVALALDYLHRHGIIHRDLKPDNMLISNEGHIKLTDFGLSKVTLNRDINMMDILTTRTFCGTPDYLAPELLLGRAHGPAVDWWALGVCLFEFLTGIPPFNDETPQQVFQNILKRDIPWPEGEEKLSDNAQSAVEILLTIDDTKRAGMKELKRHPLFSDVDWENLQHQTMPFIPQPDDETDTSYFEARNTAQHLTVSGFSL
Method: Non-radioactive kinase assays were set-up by combining hGWL-KinDom (305 µM in 20 mM HEPES pH 7.5, FL 500 mM NaCl, and 0.5 mM TCEP) diluted to desired concentration or immunoprecipitated hGWL on beads with ultra-pure ATP [Promega, 25 µM] and His-tagged substrate  α-endosulfine (ENSA, 2 µM) in kinase assay buffer (50 mM Tris-HCl pH 7.5, 0.5 mM EGTA, 150 mM NaCl, 0.1% v/v NP-40 and 15 mM MgCl2). The reaction was allowed to proceed for 30 min at 37 °C or another indicated time-point after which it was stopped with either SDS loading buffer (5X buffer, including 0.25 % w/v Bromophenol blue, 0.5 M DTT (dithiothreitol), 50% v/v Glycerol, 10% v/v SDS (sodium dodecyl sulphate), and 0.25M Tris-HCl pH 6.8) or Kinase-Glo Max reagent [Promega]. Recombinant His-tagged ENSA was purified using Ni-NTA agarose [QIAGEN] from BL21 E. coli following the manufacturer’s recommended protocol. […]
(§1) All kinase assays were repeated thrice per assay condition and each point on the concentration-dependent response curves represents the mean ± […]
After stopping the above non-radioactive kinase assay with 1 volume of Kinase-Glo Max reagent the mixture was allowed to incubate for a further 15 min. To detect consumption of ATP, samples were transferred to white, flat-bottom 96-well plates [Thermo Fisher Scientific, Loughborough, UK] and luminescence was detected using a POLARstar Omega micro-plate reader [BMG Labtech GmbH, Ortenberg, Germany]. As this assay measures ATP, activity or ATP turnover was measured as the -ΔRLU. […]

[2] = target: T2, hGWL^FL (Homo sapiens, UniProt Q96GX5); test: Immunoprecipitation kinase assay with Flag-tagged hGWL^FL (p-ENSA western); format: biochemical; conditions: for IC50: immunoprecipitated Flag-tagged hGWL^FL, read-out: IC50 GWL^FL
T2 construct: N-terminally FLAG-tagged full-length human GWL; made in house; host or cells: HEK293T cells, transfected and nocodazole-arrested; protein captured on anti-Flag M2 beads
T2 sequence (Q96GX5 1-879): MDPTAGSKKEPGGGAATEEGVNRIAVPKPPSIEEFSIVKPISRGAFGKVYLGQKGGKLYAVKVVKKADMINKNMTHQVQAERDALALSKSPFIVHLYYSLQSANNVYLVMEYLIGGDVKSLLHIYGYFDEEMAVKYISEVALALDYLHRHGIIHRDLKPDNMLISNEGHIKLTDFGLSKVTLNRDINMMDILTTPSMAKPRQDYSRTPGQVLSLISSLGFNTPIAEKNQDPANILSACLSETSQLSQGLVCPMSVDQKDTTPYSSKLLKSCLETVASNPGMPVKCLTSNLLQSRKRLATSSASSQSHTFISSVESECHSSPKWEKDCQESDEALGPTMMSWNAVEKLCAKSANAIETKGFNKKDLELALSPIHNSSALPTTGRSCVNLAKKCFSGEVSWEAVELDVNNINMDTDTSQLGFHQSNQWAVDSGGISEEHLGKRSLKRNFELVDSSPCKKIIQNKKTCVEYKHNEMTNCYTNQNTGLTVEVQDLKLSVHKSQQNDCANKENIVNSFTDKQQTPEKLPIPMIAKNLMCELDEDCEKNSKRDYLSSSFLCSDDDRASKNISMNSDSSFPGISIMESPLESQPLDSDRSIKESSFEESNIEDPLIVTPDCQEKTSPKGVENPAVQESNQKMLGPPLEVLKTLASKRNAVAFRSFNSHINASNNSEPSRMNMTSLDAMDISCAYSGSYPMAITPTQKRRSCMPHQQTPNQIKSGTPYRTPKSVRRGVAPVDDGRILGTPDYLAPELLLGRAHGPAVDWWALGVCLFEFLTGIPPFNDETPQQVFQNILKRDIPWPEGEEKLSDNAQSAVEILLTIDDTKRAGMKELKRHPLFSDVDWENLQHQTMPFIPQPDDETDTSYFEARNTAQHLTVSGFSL
Method: 500 mM NaCl, and 0.5 mM TCEP) diluted to desired concentration or immunoprecipitated hGWL on beads with ultra-pure ATP [Promega, 25 µM] and His-tagged substrate  α-endosulfine (ENSA, 2 µM) in kinase assay buffer (50 mM Tris-HCl pH 7.5, 0.5 mM EGTA, 150 mM NaCl, 0.1% v/v NP-40 and 15 mM MgCl2). The […]
(dithiothreitol), 50% v/v Glycerol, 10% v/v SDS (sodium dodecyl sulphate), and 0.25M Tris-HCl pH 6.8) or Kinase-Glo Max reagent [Promega]. Recombinant His-tagged ENSA was purified using Ni-NTA agarose [QIAGEN] from BL21 E. coli following the manufacturer’s recommended protocol. […]
as §1
Immunoprecipitation Kinase Assay
HEK293T cells were transfected with 10 µg of plasmid (Flag-tagged hGWLFL or GFP; pcDNA3-EGFP, Addgene, Cambridge MA, USA) using CaCl2. […]
incubated for a further 16–18 h. Cells were collected and washed in PBS-A followed by lysis on ice for 20 min in 1mL IP buffer (50 mM Tris-HCl pH 7.5, 150 mM NaCl, 10% v/v glycerol, 0.5% v/v NP-40, 1 mM EDTA supplemented with protease and phosphatase inhibitors (Complete and PhosStop; Roche Diagnostics)). Samples were then sonicated and clarified by centrifugation at 13,000 rpm for 30 min at 4°C. To capture Flag-tagged […]
hGWLFL, 100 µl of lysate was diluted 5-fold with IP buffer and combined with 3 µl anti-Flag M2 magnetic Dynabeads [Sigma-Aldrich] overnight at 4 °C. After sequential washes with IP buffer, 1:1 mix of IP and kinase assay buffers and a final wash in kinase assay buffer, the beads were then used in the kinase assay. The reaction was stopped by adding SDS loading buffer and analysed by western blot: p-ENSA and GWL levels were detected using the anti-phospho(Ser67)-ENSA and anti-MASTL(GWL, Prestige) antibodies. Activity was measured as the p-ENSA/GWL ratio and % kinase activity was normalised to the DMSO control. All kinases assays were repeated thrice per assay condition and each point on the concentration-dependent response curves represents the mean ± 1 S.D. […]

SMILES | IC50 [1] [µM] | inhibitory ratio (IC50 GWL^FL/IC50 GWL-KinDom) ([2]; for GKI-1: EC50 hGWL^FL vs IC50 hGWL-KinDom) | EC50 ([2]; immunoprecipitated hGWL^FL, read-out: EC50 GWL^FL) [µM] | IC50 [2] [µM]
Clc1ccc(Nc2cccc(-c3cn[nH]c3)c2)cc1 [GKI-1, N-(4-chlorophenyl)-3-(1H-pyrazol-4-yl)aniline] | 2.5 | ~ 2 | 4.9 | –
CN(C)CC#Cc1cccc(C(=O)c2cnn(-c3ccc(F)cc3)c2N)c1 [GRI-3] | 109 ± 13.7 | – | – | 66
CCN(CC)Cc1ccc(Nc2nccc(-c3cnn4ncccc34)n2)cc1 [GRI-4] | 3.22 ± 0.31 | – | – | 2.5
